Assay [1] concerns the target 5-HT6 receptors (Homo sapiens, UniProt P50406). As to the kind of experiment: 5-HT6 receptor binding assay ([3H]-LSD radioligand). The conditions noted are these: membranes from CHO-K1 cells with human 5-HT6 receptor, [3H]-LSD 1 nM. Here is the method:
(§1) Preparation of Solutions of Test and Reference Compounds.
1 mM stock solutions of tested compounds were prepared in DMSO. Serial dilutions of compounds were prepared in 96-well microplate in assay buffers using automated pipetting system epMotion 5070 (Eppendorf). Each compound was tested in 10 concentrations from 1.0E-6 to 1.0E-11 M (final concentration).
5-HT6 Receptor Binding Assay.
Radioligand binding was performed using membranes from CHO-K1 cells stably transfected with the human 5-HT6 receptor (PerkinElmer). All assays were carried out in duplicates. 50 μl working solution of the tested compounds, 50 μl [3H]-LSD (final concentration 1 nM) and 150 μl diluted membranes (8 μg protein per well) prepared in assay buffer (50 mM Tris, pH 7.4, 10 mM MgCl2, 0.1 mM EDTA) were transferred to polypropylene 96 well microplate using 96-wells pipetting station Rainin Liquidator (MettlerToledo). Methiothepin (10 μM) was used to define nonspecific binding. Microplate was covered with a sealing tape, mixed and incubated for 60 minutes at 37° C. The reaction was terminated by rapid filtration through GF/A filter mate presoaked with 0.5% polyethyleneimine for 30 minutes. Ten rapid washes with 200 μl 50 mM Tris buffer (4° C., pH 7.4) were performed using automated harvester system Harvester-96 MACH III FM (Tomtec). The filter mates were dried at 37° C. in forced air fan incubator and then solid scintilator MeltiLex was melted on filter mates at 90° C. for 5 minutes. Radioactivity was counted in MicroBeta2 scintillation counter (PerkinElmer). Data were fitted to a one-site curve-fitting equation with Prism 6 (GraphPad Software) and Ki values were estimated from the Cheng-Prusoff equation.

Assay [2] has as its target human GPCR 5-HT2A (Homo sapiens, UniProt P28223). As to the kind of experiment: Cellular aequorin-based functional assay, 5-HT2A. It counts as cell-based. The following applies: for 5-HT2A AGO EC50 [nM]: agonist mode, CHO-K1 aequorin cells. On the procedure: as §1
1 mM stock solutions of the tested compounds were prepared in DMSO. Serial dilutions were prepared in 96-well microplate in assay buffers using automated pipetting system epMotion 5070 (Eppendorf). Two independent experiments in duplicates were performed and 6 to 10 concentrations were tested.
5-HT2A and 5-HT6 Functional Activity Assays.
Cellular aequorin-based functional assays were performed with γ-irradiated recombinant CHO-K1 cells expressing mitochondrially-targeted Aequorin, human GPCR (5-HT2A or 5-HT6) and the promiscuous G protein α16 (PerkinElemer). Assays were performed according to the standard protocol provided by the manufacturer. After thawing, cells were transferred to assay buffer (DMEM/HAM's F12 with 0.1% protease-free BSA) and centrifuged. Cell pellet was resuspended in assay buffer and coelenterazine h was added at final concentrations of 5 μM. Cell suspension was incubated at 21° C., protected from light with constant agitation, for 4 hours and then diluted with assay buffer to a concentration of 250,000 cells/ml. After 1 hour incubation 50 yl cell suspension was dispensed using automatic injectors built in radiometric and luminescence plate counter MicroBeta2 LumiJET (PerkinElmer, USA) into white opaque 96-well microplate preloaded with tested compounds. Immediate light emission generated following calcium mobilization was recorded for 30-60 seconds. In antagonist mode, after 15-30 minutes incubation reference agonist was added to the above assay mix and light emission was recorded again. Final concentration of reference agonist was equal EC80: serotonin 40 nM for 5-HT6 receptor and α-methylserotonin 30 nM for 5-HT2A receptor. The assays were performed in the agonist mode (5-HT6 AGO and 5-HT2A AGO) as well as antagonist mode (5-HT6 ANT and 5-HT2A ANT).
IC50 and EC50 were determined by non-linear regression analysis using GraphPad Prism 6.0 software. The log IC50 was used to obtain the Kb by applying the Cheng-Prusoff approximation.

The subject of assay [3] is head twitches induced by 5-HT2A/C receptor agonist DOI. The experiment in a line: DOI-induced head twitches in Wistar rats. The conditions noted are these: hydrochloride salt p.o. 180 min before observation; DOI 2.5 mg/kg i.p.; male Wistar rats. It counts as in vivo. Here is the method: Biological Example 3. Effects of Compounds 1 and 17, on Head Twitches Induced by a 5-HT2A/C receptor agonist, 1-(2,5-dimethoxy-4-Iodophenyl)-2-aminopropane hydrochloride (DOI) in Wistar Rats
Drug-naive male Wistar rats (Charles River, Sulzfeld, Germany) were used. Rats were housed four per standard plastic cage and kept in a room with constant environmental conditions (22±1° C., relative humidity 60%, a 12:12 light-dark cycle with lights on at 07:00 a.m.). Animals were supplied by the breeder 2 weeks before the onset of behavioral procedures. During this time, the subjects were weighted and handled several times. The rats were also habituated to p.o. administration of tested compounds in form of hydrochloride salt by gavage dosing of distilled water (1-2 mL). Tap water and standard lab chow (Labofeed H, WPIK, Kcynia, Poland) was available ad libitum.
All tests were carried out in a sound-attenuated experimental room between 10:00 a.m. and 04:00 p.m. DOI-induced head twitches were scored as described by Millan et al. (2000). Rats were injected with DOI (2.5 mg/kg, i.p.) and placed in glass observation cages (25×25×40 cm, W×H×L) with wood chip bedding on the floor. Five minutes later, head twitches were counted for 5 min. (300 s) by a trained observer. […]
Total numbers of head twitches (n/5 min.) were analyzed with the aid of the Kruskal-Wallis analysis of variance (ANOVA). […]

pKi: −log10 of the molar value. Like-named read-outs stand apart in the source and are kept apart here.

human GPCR 5-HT2A, sequence (P28223 whole entry): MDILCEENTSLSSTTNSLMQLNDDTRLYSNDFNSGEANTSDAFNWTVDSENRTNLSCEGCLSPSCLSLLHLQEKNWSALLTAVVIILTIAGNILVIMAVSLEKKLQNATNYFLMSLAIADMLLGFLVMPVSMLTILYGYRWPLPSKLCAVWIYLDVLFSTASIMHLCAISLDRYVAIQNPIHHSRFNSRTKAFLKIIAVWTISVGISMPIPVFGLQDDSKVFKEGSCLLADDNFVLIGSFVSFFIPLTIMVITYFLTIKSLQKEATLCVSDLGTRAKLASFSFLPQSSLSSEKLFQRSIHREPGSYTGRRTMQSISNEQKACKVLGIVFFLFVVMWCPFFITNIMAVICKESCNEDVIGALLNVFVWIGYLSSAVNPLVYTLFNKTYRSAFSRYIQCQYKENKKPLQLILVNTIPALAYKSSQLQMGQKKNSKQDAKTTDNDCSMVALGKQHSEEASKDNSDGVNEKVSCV
5-HT6 receptors, sequence (P50406 whole entry): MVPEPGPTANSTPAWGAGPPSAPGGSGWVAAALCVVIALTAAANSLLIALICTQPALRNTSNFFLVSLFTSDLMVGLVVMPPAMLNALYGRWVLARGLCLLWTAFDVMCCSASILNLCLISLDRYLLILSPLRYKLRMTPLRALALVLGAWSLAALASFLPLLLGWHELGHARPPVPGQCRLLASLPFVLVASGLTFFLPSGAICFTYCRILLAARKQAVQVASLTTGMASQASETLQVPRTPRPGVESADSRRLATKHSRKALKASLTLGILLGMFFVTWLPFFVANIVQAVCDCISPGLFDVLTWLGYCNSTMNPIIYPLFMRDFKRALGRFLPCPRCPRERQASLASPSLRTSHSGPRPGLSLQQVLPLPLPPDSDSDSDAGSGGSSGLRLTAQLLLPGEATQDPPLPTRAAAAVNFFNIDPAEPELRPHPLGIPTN

For the compound `FC(F)(F)c1nc2c(N3CCNCC3)cccc2n1Cc1ccccc1` [Compound 1, 1-benzyl-4-(piperazin-1-yl)-2-(trifluoromethyl)-1H-benzimidazole], the pKi in assay [1] is 8.89. The “5-HT2A AGO EC50 [nM]” value in assay [2] is reported as “N.C”. In assay [2] (antagonist mode, reference agonist α-methylserotonin 30 nM (EC80), read-out: 5-HT2A ANT Kb), the Kb came out at 18 nM. Also, the “minimum effective dose (MED), attenuation of DOI-induced head twitches” value in assay [3] came out at 3.0 mg/kg.
In turn, `FC(F)(F)c1cc2c(N3CCNCC3)cccc2n1Cc1ccco1` [Compound 17, 1-(furan-2-ylmethyl)-4-(piperazin-1-yl)-2-(trifluoromethyl)-1H-indole] showed a pKi in assay [1] of 9.21. In addition, in assay [2], the Kb worked out at 10 nM and the “5-HT2A AGO EC50 [nM]” value was “N.C”. The “minimum effective dose (MED), attenuation of DOI-induced head twitches” value in assay [3] is listed as 1.0 mg/kg.

The record behind these values is US20200377496A1, “INDOLE AND BENZIMIDAZOLE DERIVATIVES AS DUAL 5-HT2A and 5-HT6 RECEPTOR ANTAGONISTS” (ADAMED PHARMA, S.A., priority 2018, published 2020).
